# Details: Cohort 1 200 mg QD
smiles,measurement,value
"CC(C)NC(=O)COc1cccc(-c2nc(Nc3ccc4[nH]ncc4c3)c3ccccc3n2)c1 [Belumosudil, 2-{3-[4-(1H-indazol-5-ylamino)-2-quinazolinyl]phenoxy}-N-(propan-2-yl) acetamide]",Hypogonadism: # Events,1
same,Hypogonadism: Affected/At Risk,1/17
same,Hypogonadism: Affected/At Risk (%),(5.88%)
same,Hypokalaemia: # Events,1
same,Hypokalaemia: Affected/At Risk,1/17
same,Hypokalaemia: Affected/At Risk (%),(5.88%)
same,Hypomagnesaemia: # Events,1
same,Hypomagnesaemia: Affected/At Risk,1/17
same,Hypomagnesaemia: Affected/At Risk (%),(5.88%)
same,Hyponatraemia: # Events,1
same,Hyponatraemia: Affected/At Risk,1/17
same,Hyponatraemia: Affected/At Risk (%),(5.88%)
same,Hypophosphataemia: # Events,1
same,Hypophosphataemia: Affected/At Risk,1/17
same,Hypophosphataemia: Affected/At Risk (%),(5.88%)
same,Hypothermia: # Events,0
same,Hypothermia: Affected/At Risk,0/17
same,Hypothermia: Affected/At Risk (%),(0%)
same,Hypothyroidism: # Events,2
same,Hypothyroidism: Affected/At Risk,1/17
same,Hypothyroidism: Affected/At Risk (%),(5.88%)
same,Hypoxia: # Events,1
same,Hypoxia: Affected/At Risk,1/17
same,Hypoxia: Affected/At Risk (%),(5.88%)
same,Impaired healing: # Events,1
same,Impaired healing: Affected/At Risk,1/17
same,Impaired healing: Affected/At Risk (%),(5.88%)
same,Influenza like illness: # Events,1
same,Influenza like illness: Affected/At Risk,1/17
same,Influenza like illness: Affected/At Risk (%),(5.88%)
same,Influenza: # Events,2
same,Influenza: Affected/At Risk,2/17
same,Influenza: Affected/At Risk (%),(11.76%)
same,Insomnia: # Events,0
same,Insomnia: Affected/At Risk,0/17
same,Insomnia: Affected/At Risk (%),(0%)
same,Irritability: # Events,1
same,Irritability: Affected/At Risk,1/17
same,Irritability: Affected/At Risk (%),(5.88%)
same,Joint range of motion decreased: # Events,0
same,Joint range of motion decreased: Affected/At Risk,0/17
same,Joint range of motion decreased: Affected/At Risk (%),(0%)
same,Lacrimation increased: # Events,0
same,Lacrimation increased: Affected/At Risk,0/17
same,Lacrimation increased: Affected/At Risk (%),(0%)
same,Leukaemia recurrent: # Events,1
same,Leukaemia recurrent: Affected/At Risk,1/17
same,Leukaemia recurrent: Affected/At Risk (%),(5.88%)
same,Leukocytosis: # Events,1
same,Leukocytosis: Affected/At Risk,1/17
same,Leukocytosis: Affected/At Risk (%),(5.88%)
same,Ligament sprain: # Events,1
same,Ligament sprain: Affected/At Risk,1/17
same,Ligament sprain: Affected/At Risk (%),(5.88%)
same,Limb injury: # Events,1
same,Limb injury: Affected/At Risk,1/17
same,Limb injury: Affected/At Risk (%),(5.88%)
same,Macular degeneration: # Events,0
same,Macular degeneration: Affected/At Risk,0/17
same,Macular degeneration: Affected/At Risk (%),(0%)
same,Migraine: # Events,0
same,Migraine: Affected/At Risk,0/17
same,Migraine: Affected/At Risk (%),(0%)
same,Muscle spasms: # Events,1
same,Muscle spasms: Affected/At Risk,1/17
same,Muscle spasms: Affected/At Risk (%),(5.88%)
same,Muscle spasticity: # Events,1
same,Muscle spasticity: Affected/At Risk,1/17
same,Muscle spasticity: Affected/At Risk (%),(5.88%)
same,Muscular weakness: # Events,6
same,Muscular weakness: Affected/At Risk,4/17
same,Muscular weakness: Affected/At Risk (%),(23.53%)
same,Musculoskeletal chest pain: # Events,1
same,Musculoskeletal chest pain: Affected/At Risk,1/17
same,Musculoskeletal chest pain: Affected/At Risk (%),(5.88%)
same,Myalgia: # Events,2
same,Myalgia: Affected/At Risk,1/17
same,Myalgia: Affected/At Risk (%),(5.88%)
same,Nail disorder: # Events,1
same,Nail disorder: Affected/At Risk,1/17
same,Nail disorder: Affected/At Risk (%),(5.88%)
same,Nasal congestion: # Events,3
same,Nasal congestion: Affected/At Risk,3/17
same,Nasal congestion: Affected/At Risk (%),(17.65%)
same,Nausea: # Events,10
same,Nausea: Affected/At Risk,6/17
same,Nausea: Affected/At Risk (%),(35.29%)
same,Neck pain: # Events,1
same,Neck pain: Affected/At Risk,1/17
same,Neck pain: Affected/At Risk (%),(5.88%)
same,Nephrotic syndrome: # Events,1
same,Nephrotic syndrome: Affected/At Risk,1/17
same,Nephrotic syndrome: Affected/At Risk (%),(5.88%)
same,Neuropathy peripheral: # Events,0
same,Neuropathy peripheral: Affected/At Risk,0/17
same,Neuropathy peripheral: Affected/At Risk (%),(0%)
same,Neutrophil count decreased: # Events,1
same,Neutrophil count decreased: Affected/At Risk,1/17
same,Neutrophil count decreased: Affected/At Risk (%),(5.88%)
same,Nocturia: # Events,1
same,Nocturia: Affected/At Risk,1/17
same,Nocturia: Affected/At Risk (%),(5.88%)
same,Non-cardiac chest pain: # Events,0
same,Non-cardiac chest pain: Affected/At Risk,0/17
same,Non-cardiac chest pain: Affected/At Risk (%),(0%)
same,Obesity: # Events,2
same,Obesity: Affected/At Risk,2/17
same,Obesity: Affected/At Risk (%),(11.76%)
same,Oedema peripheral: # Events,3
same,Oedema peripheral: Affected/At Risk,3/17
same,Oedema peripheral: Affected/At Risk (%),(17.65%)
same,Oedema: # Events,0
same,Oedema: Affected/At Risk,0/17
same,Oedema: Affected/At Risk (%),(0%)
same,Oesophageal ulcer: # Events,0
same,Oesophageal ulcer: Affected/At Risk,0/17
same,Oesophageal ulcer: Affected/At Risk (%),(0%)
same,Oral candidiasis: # Events,3
same,Oral candidiasis: Affected/At Risk,2/17
same,Oral candidiasis: Affected/At Risk (%),(11.76%)
same,Oropharyngeal pain: # Events,1
same,Oropharyngeal pain: Affected/At Risk,1/17
same,Oropharyngeal pain: Affected/At Risk (%),(5.88%)
same,Orthopnoea: # Events,1
same,Orthopnoea: Affected/At Risk,1/17
same,Orthopnoea: Affected/At Risk (%),(5.88%)
same,Osteonecrosis: # Events,1
same,Osteonecrosis: Affected/At Risk,1/17
same,Osteonecrosis: Affected/At Risk (%),(5.88%)
same,Osteopenia: # Events,0
same,Osteopenia: Affected/At Risk,0/17
same,Osteopenia: Affected/At Risk (%),(0%)
same,Osteoporosis: # Events,0
same,Osteoporosis: Affected/At Risk,0/17
same,Osteoporosis: Affected/At Risk (%),(0%)
same,Overdose: # Events,1
same,Overdose: Affected/At Risk,1/17
same,Overdose: Affected/At Risk (%),(5.88%)
same,Pain in extremity: # Events,2
same,Pain in extremity: Affected/At Risk,2/17
same,Pain in extremity: Affected/At Risk (%),(11.76%)
same,Pain: # Events,3
same,Pain: Affected/At Risk,3/17
same,Pain: Affected/At Risk (%),(17.65%)
same,Palpitations: # Events,1
same,Palpitations: Affected/At Risk,1/17
same,Palpitations: Affected/At Risk (%),(5.88%)
same,Paraesthesia: # Events,0
same,Paraesthesia: Affected/At Risk,0/17
same,Paraesthesia: Affected/At Risk (%),(0%)
same,Participants with TEAE,17 (100%) participants
same,Participants with TESAE,5 (29%) participants
same,Pericardial effusion: # Events,1
same,Pericardial effusion: Affected/At Risk,1/17
same,Pericardial effusion: Affected/At Risk (%),(5.88%)
same,Peripheral coldness: # Events,1
same,Peripheral coldness: Affected/At Risk,1/17
same,Peripheral coldness: Affected/At Risk (%),(5.88%)
same,Peripheral sensory neuropathy: # Events,0
same,Peripheral sensory neuropathy: Affected/At Risk,0/17
same,Peripheral sensory neuropathy: Affected/At Risk (%),(0%)
same,Phlebitis: # Events,0
same,Phlebitis: Affected/At Risk,0/17
same,Phlebitis: Affected/At Risk (%),(0%)
same,Photophobia: # Events,0
same,Photophobia: Affected/At Risk,0/17
same,Photophobia: Affected/At Risk (%),(0%)
same,Platelet count decreased: # Events,3
same,Platelet count decreased: Affected/At Risk,1/17
same,Platelet count decreased: Affected/At Risk (%),(5.88%)
same,Pleural effusion: # Events,1
same,Pleural effusion: Affected/At Risk,1/17
same,Pleural effusion: Affected/At Risk (%),(5.88%)
same,Pneumonia respiratory syncytial viral: # Events,0
same,Pneumonia respiratory syncytial viral: Affected/At Risk,0/17
same,Pneumonia respiratory syncytial viral: Affected/At Risk (%),(0%)
same,Pneumonia: # Events,2
same,Pneumonia: Affected/At Risk,1/17
same,Pneumonia: Affected/At Risk (%),(5.88%)
same,Pollakiuria: # Events,1
same,Pollakiuria: Affected/At Risk,1/17
same,Pollakiuria: Affected/At Risk (%),(5.88%)
same,Presyncope: # Events,0
same,Presyncope: Affected/At Risk,0/17
same,Presyncope: Affected/At Risk (%),(0%)
same,Productive cough: # Events,2
same,Productive cough: Affected/At Risk,2/17
same,Productive cough: Affected/At Risk (%),(11.76%)
same,Proteinuria: # Events,2
same,Proteinuria: Affected/At Risk,2/17
same,Proteinuria: Affected/At Risk (%),(11.76%)
same,Pruritus: # Events,1
same,Pruritus: Affected/At Risk,1/17
same,Pruritus: Affected/At Risk (%),(5.88%)
same,Pseudomonas infection: # Events,1
same,Pseudomonas infection: Affected/At Risk,1/17
same,Pseudomonas infection: Affected/At Risk (%),(5.88%)
same,Pulmonary mass: # Events,0
same,Pulmonary mass: Affected/At Risk,0/17
same,Pulmonary mass: Affected/At Risk (%),(0%)
same,Pyrexia: # Events,3
same,Pyrexia: Affected/At Risk,1/17
same,Pyrexia: Affected/At Risk (%),(5.88%)
same,Rash erythematous: # Events,0
same,Rash erythematous: Affected/At Risk,0/17
same,Rash erythematous: Affected/At Risk (%),(0%)
same,Rash maculo-papular: # Events,2
same,Rash maculo-papular: Affected/At Risk,2/17
same,Rash maculo-papular: Affected/At Risk (%),(11.76%)
same,Rash pustular: # Events,0
same,Rash pustular: Affected/At Risk,0/17
same,Rash pustular: Affected/At Risk (%),(0%)
same,Rash: # Events,2
same,Rash: Affected/At Risk,1/17
same,Rash: Affected/At Risk (%),(5.88%)
same,Red blood cells urine positive: # Events,0
same,Red blood cells urine positive: Affected/At Risk,0/17
same,Red blood cells urine positive: Affected/At Risk (%),(0%)
same,Renal failure: # Events,0
same,Renal failure: Affected/At Risk,0/17
same,Renal failure: Affected/At Risk (%),(0%)
same,Respiratory syncytial virus infection: # Events,0
same,Respiratory syncytial virus infection: Affected/At Risk,0/17
same,Respiratory syncytial virus infection: Affected/At Risk (%),(0%)
same,Respiratory tract infection fungal: # Events,1
same,Respiratory tract infection fungal: Affected/At Risk,1/17
same,Respiratory tract infection fungal: Affected/At Risk (%),(5.88%)
same,Respiratory tract infection: # Events,1
same,Respiratory tract infection: Affected/At Risk,1/17
same,Respiratory tract infection: Affected/At Risk (%),(5.88%)
same,Restless legs syndrome: # Events,0
same,Restless legs syndrome: Affected/At Risk,0/17
same,Restless legs syndrome: Affected/At Risk (%),(0%)
same,Rosacea: # Events,0
same,Rosacea: Affected/At Risk,0/17
same,Rosacea: Affected/At Risk (%),(0%)
same,"SAE Abdominal wall haematoma, # events",0
same,"SAE Abdominal wall haematoma, affected/at risk",0/17
same,"SAE Acute kidney injury, # events",0
same,"SAE Acute kidney injury, affected/at risk",0/17
same,"SAE Acute lymphocytic leukaemia recurrent, # events",0
same,"SAE Acute lymphocytic leukaemia recurrent, affected/at risk",0/17
same,"SAE Acute respiratory failure, # events",1
same,"SAE Acute respiratory failure, affected/at risk",1/17
same,"SAE Anaphylactic reaction, # events",1
same,"SAE Anaphylactic reaction, affected/at risk",1/17
same,"SAE Bacteraemia, # events",0
same,"SAE Bacteraemia, affected/at risk",0/17
same,"SAE Cardiac arrest, # events",0
same,"SAE Cardiac arrest, affected/at risk",0/17
same,"SAE Cellulitis, # events",0
same,"SAE Cellulitis, affected/at risk",0/17
same,"SAE Chronic graft versus host disease in skin, # events",0
same,"SAE Chronic graft versus host disease in skin, affected/at risk",0/17
same,"SAE Citrobacter infection, # events",0
same,"SAE Citrobacter infection, affected/at risk",0/17
same,"SAE Dyspnoea, # events",0
same,"SAE Dyspnoea, affected/at risk",0/17
same,"SAE Embolism, # events",0
same,"SAE Embolism, affected/at risk",0/17
same,"SAE Febrile neutropenia, # events",0
same,"SAE Febrile neutropenia, affected/at risk",0/17
same,"SAE Graft versus host disease in lung, # events",0
same,"SAE Graft versus host disease in lung, affected/at risk",0/17
same,"SAE Hypoxia, # events",0
same,"SAE Hypoxia, affected/at risk",0/17
same,"SAE Influenza A virus test positive, # events",1
same,"SAE Influenza A virus test positive, affected/at risk",1/17
same,"SAE Influenza like illness, # events",0
same,"SAE Influenza like illness, affected/at risk",0/17
same,"SAE Lacunar infarction, # events",0
same,"SAE Lacunar infarction, affected/at risk",0/17
same,"SAE Leukaemia recurrent, # events",0
same,"SAE Leukaemia recurrent, affected/at risk",0/17
